This note sets out measurements from PMC10921007 (Cancer Science, 2023).

This assay addresses T1, SHCBP1 (Homo sapiens, UniProt Q8NEM2).
T1 sequence (Q8NEM2 2-672): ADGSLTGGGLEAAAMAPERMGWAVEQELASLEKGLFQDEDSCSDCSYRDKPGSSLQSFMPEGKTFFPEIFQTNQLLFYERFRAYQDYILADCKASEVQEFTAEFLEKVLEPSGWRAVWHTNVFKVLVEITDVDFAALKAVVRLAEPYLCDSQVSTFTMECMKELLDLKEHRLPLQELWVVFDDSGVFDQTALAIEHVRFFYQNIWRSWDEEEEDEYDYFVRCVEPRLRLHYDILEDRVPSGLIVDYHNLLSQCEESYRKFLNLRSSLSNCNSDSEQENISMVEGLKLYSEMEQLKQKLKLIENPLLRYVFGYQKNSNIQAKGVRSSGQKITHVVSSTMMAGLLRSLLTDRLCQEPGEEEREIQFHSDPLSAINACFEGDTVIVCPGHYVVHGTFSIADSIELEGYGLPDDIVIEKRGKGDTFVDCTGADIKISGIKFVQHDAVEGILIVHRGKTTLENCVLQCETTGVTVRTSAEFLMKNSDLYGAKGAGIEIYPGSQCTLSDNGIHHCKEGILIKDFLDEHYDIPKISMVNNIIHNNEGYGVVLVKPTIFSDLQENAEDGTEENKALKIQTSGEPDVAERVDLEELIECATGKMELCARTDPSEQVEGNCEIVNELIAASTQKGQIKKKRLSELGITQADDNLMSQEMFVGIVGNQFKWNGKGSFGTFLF
Description: microscale thermophoresis. The class given is binding.

A word on the Kd: it is the constant that tells how readily two partners part at equilibrium. The low end stands for tighter binding, the high end for weaker binding. `CN[C@@H](C)C(=O)N[C@H](C(=O)N1CCC[C@H]1C(=O)N[C@H]1c2ccccc2C[C@H]1OCC#CC#CCO[C@@H]1Cc2ccccc2[C@@H]1NC(=O)[C@@H]1CCCN1C(=O)[C@@H](NC(=O)[C@H](C)NC)C1CCCCC1)C1CCCCC1` [AZD5582] showed a Kd of 1210 nM.
